Laboratory results taken from US9040481B2, “Methods for treating steatotic disease” (The General Hospital Corporation, priority 2010, dated 2015).
One block for each substance: values may come before it. Where no end group is shown, it is not given here. FAM = 5-carboxyfluorescein (5-FAM), fluorescent label attached at the amino terminus

Assays:
[1] = tested on: hepatocytes isolated from ob/ob mice; type: cell-based, mouse; settings: for specificity of intracellular transport: distribution versus pattern of mitotracker: Ob/Ob hepatocytes, 18 hours, 1 microM FAM peptide, 1 microM Mitotracker, 25 mM glucose
Experimental: GLP-1(28-36)amide (FIAWLVKGRamide (SEQ ID NO:1) and the GLP-1(28-37) Arg-34 glycine extended (FIAWLVRGRG (SEQ ID NO:4)) peptides were prepared by solid phase synthesis and purified by sequential HPLC to >98% single component homogeneity. Verification of the peptides was done by both amino acid composition analysis and by mass spectroscopy. Fluorescent-labeled GLP-1(28-36)amide was prepared with the green fluorescence compound, 5-carboxyfluorescein (5-FAM, fluorescein amidite) and added to hepatocytes isolated from the liver of an ob/ob mouse along with Mitotracker, a specific red fluorochrome mitochondrial marker from Molecular Probes (AnaSpec, Fremont Calif.). The mitotracker compound used requires oxidation to develop fluorescence emission and fluoresces only if cells are viable and actively respiring. The oxidized red fluorochrome stains mitochondria of live and poorly respiring cells (RedCMXRos #7512) and the reduced red fluorochrome stains only actively respiring cells (Red CM-H2XRos #7513).
Mitochondrial localization was evaluated as follows, Hepatocytes were isolated from ob/ob mice and diet-induced obese (DIO) mice and plated overnight on 4 well glass slides (NUNC, Inc., IL) in maintenance medium (12), Next day cells were treated with 10 microM PAM-labeled GLP-1 (28-36)amide peptide (FAM-FIAWLVKGRamide (SEQ ID NO:1)) and 50 nM MitoTracker Red CM-H2Ros for 5 minutes in no dye, no PBS, 5 mM Glucose DMEM medium. Cells were washed with the same medium and images were taken 15 minutes later using Nikon Diaphot 300 inverted microscope SPOT RT camera and SPOT 3.3.1 software (Diagnostic Instruments, Inc., MI).
Whether intracellular transport of FAM-GLP-1(28-36)amide is specific for […] was evaluated in hepatocytes isolated from Ob/Ob mice and treated for 18 hours with 1 microM Mitotracker Red CM-H2XRos and 1 microM of TAM labeled GLP-1 (28-36) peptide or irrelevant peptide controls: synapsin I-derived petide (FAM-LRRRISDANFamide (SEQ NO:13)), AnaSpec Cat #61756; IP3R-derived peptide (FAM-GRRESLTSFGamide (SEQ ID NO:14)), AnaSpec cat. #61731; or angiotensin I peptide (FAM-DRVYIHPFHL (SEQ ID NO:15)), AnaSpec cat. #61185, in 25 mM glucose maintenance medium. Irrelevant peptides were obtained from AnaSpec, Fremont, Calif. Celts were washed with 25 mM glucose Krebs-Ringer buffer. Images were taken using Nikon Diaphot 300 inverted microscope SPOT RT camera and SPOT 3.3.1 software (Diagnostic Instruments, Inc., MI).

[2] = tested on: isolated mouse hepatocytes
[3] = mouse, in vivo
[4] = mouse, in vivo; remark: listed apart in the source

Substance: FAM-DRVYIHPFHL ({FAM}-DRVYIHPFHL) [angiotensin I peptide, irrelevant peptide control, AnaSpec cat. #61185]
specificity of intracellular transport: distribution versus pattern of mitotracker [1]: do not distribute in hepatocytes with the pattern of distribution of mitotracker

Substance: FAM-FIAWLVKGRamide ({FAM}-FIAWLVKGR-NH2; UniProt P01275 119-127, looked up, fragment) [FAM-GLP-1(28-36)amide, GLP-1(28-36)amide labeled at the amino-terminus with 5-carboxyfluorescein (FAM)]
specificity of intracellular transport: distribution versus pattern of mitotracker [1]: appears to be specific for GLP-1(28-36)amide

Substance: FAM-GLP-1: fluorescence-labeled GLP-1
binding to the surface of isolated mouse hepatocytes [2]: no binding

Substance: FAM-GRRESLTSFGamide ({FAM}-GRRESLTSFG-NH2) [IP3R-derived peptide, irrelevant peptide control, AnaSpec cat. #61731]
specificity of intracellular transport: distribution versus pattern of mitotracker [1]: do not distribute in hepatocytes with the pattern of distribution of mitotracker

Substance: FAM-LRRRISDANFamide [synapsin I-derived petide]
specificity of intracellular transport: distribution versus pattern of mitotracker [1]: do not distribute in hepatocytes with the pattern of distribution of mitotracker

Substance: FAM-glucagon: FAM-labeled control hormone known to have receptors on hepatocytes
binding to the surface of isolated mouse hepatocytes [2]: readily binds to the surface of hepatocytes

activities of the mice [3]: no observable change in the activities
MCR of the peptide [4]: 40 to 50 mL/min
time to enter stressed hepatocytes [1]: ≤ 15 min
Substance: FIAWLVKGR-NH2 [GLP-1(28-36)amide, FIAWLVKGRamide]
mechanism of transport into hepatocytes (GLP-1 receptor): occurs by GLP-1 receptor-independent mechanisms
